Patent US20240383875A1, “Benzimidazole Pyridine Derivatives” (Hoffmann-La Roche Inc., priority 2022, published 2024)

Experiments:
Format in all cases: biochemical
SIK3 = SIK3 (Homo sapiens, UniProt Q9Y2K2); test: Enzymatic activity assay SIK3, RapidFire mass spectrometry (phosphorylation of CHK-peptide); conditions: RapidFire MS, inhibition of SIK3; read-out: SIK3 RF IC50
How it was run: (§1)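 Compounds (12-point, 3-fold, generally 30 μM to 170 pM) were pre-incubated 30 min at ambient temperature with SIK1 (5 nM), SIK2 (0.5 nM) or SIK3 (1.5 nM) in HEPES pH 7.0/magnesium acetate buffer. CHK-peptide (10 μM solution) and ATP (100 μM solution) were then added for 45 min before formic acid quench.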

SIK2 = SIK2 (Homo sapiens, UniProt Q9H0K1); test: Enzymatic activity assay SIK2, RapidFire mass spectrometry (phosphorylation of CHK-peptide); conditions: RapidFire MS, inhibition of SIK2; read-out: SIK2 RF IC50
Sequence of SIK2 (Q9H0K1 whole entry): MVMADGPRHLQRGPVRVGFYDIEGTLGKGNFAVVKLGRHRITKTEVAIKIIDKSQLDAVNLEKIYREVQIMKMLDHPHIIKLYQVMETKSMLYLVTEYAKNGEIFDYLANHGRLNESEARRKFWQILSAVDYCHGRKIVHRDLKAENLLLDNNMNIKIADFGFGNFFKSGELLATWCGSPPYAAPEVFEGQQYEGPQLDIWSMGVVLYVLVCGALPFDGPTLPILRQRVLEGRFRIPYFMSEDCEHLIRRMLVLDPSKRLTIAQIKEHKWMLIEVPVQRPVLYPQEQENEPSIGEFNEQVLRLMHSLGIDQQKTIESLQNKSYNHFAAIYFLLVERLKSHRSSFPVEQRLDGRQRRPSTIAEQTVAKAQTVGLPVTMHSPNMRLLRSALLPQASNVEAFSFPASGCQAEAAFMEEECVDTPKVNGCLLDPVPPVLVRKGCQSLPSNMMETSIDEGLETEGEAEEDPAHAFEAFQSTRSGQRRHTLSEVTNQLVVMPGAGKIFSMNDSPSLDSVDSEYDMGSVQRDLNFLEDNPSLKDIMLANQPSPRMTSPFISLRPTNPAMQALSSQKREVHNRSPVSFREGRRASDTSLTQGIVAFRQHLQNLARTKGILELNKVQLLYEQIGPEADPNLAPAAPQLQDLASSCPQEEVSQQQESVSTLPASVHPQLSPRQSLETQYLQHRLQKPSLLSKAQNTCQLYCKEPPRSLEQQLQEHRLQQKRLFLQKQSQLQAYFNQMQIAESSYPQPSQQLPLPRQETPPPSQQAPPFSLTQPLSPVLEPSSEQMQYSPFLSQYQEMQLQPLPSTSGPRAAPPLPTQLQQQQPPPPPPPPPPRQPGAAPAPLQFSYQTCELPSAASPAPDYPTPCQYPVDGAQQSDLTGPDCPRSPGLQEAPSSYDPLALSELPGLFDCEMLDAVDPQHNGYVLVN
How it was run: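 SIK2 (0.5 nM) in pH 7.0 HEPES buffer with 10 mM Mg acetate phosphorylates CHK-peptide (10 μM solution) with 100 μM ATP solution, 45 min ambient, then formic acid quench.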

SIK1 = SIK1 (Homo sapiens, UniProt P57059); test: Enzymatic activity assay SIK1, RapidFire mass spectrometry (phosphorylation of CHK-peptide); conditions: RapidFire MS, inhibition of SIK1; read-out: SIK1 RF IC50
Sequence of SIK1 (P57059 whole entry): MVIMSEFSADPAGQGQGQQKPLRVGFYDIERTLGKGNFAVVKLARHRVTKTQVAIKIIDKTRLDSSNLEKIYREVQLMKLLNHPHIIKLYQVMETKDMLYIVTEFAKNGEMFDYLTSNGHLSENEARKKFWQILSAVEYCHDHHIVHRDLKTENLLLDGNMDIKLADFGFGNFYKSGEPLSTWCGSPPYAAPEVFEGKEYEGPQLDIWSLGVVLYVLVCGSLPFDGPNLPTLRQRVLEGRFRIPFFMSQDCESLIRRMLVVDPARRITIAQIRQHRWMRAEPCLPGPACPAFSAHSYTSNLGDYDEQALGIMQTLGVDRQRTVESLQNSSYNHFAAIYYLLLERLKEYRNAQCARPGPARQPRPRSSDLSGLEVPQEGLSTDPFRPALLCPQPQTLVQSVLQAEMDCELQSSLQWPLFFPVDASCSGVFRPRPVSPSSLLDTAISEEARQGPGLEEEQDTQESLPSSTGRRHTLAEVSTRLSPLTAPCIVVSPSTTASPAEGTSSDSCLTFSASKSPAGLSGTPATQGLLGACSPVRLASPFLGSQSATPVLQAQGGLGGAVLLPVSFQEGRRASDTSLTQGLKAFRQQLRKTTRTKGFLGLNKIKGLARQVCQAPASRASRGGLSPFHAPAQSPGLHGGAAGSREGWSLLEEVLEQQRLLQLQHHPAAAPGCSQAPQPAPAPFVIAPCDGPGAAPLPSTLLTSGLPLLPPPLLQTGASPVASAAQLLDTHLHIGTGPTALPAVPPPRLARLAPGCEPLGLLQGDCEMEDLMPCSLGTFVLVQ
How it was run: as §1

Sequence of SIK3 (Q9Y2K2 whole entry): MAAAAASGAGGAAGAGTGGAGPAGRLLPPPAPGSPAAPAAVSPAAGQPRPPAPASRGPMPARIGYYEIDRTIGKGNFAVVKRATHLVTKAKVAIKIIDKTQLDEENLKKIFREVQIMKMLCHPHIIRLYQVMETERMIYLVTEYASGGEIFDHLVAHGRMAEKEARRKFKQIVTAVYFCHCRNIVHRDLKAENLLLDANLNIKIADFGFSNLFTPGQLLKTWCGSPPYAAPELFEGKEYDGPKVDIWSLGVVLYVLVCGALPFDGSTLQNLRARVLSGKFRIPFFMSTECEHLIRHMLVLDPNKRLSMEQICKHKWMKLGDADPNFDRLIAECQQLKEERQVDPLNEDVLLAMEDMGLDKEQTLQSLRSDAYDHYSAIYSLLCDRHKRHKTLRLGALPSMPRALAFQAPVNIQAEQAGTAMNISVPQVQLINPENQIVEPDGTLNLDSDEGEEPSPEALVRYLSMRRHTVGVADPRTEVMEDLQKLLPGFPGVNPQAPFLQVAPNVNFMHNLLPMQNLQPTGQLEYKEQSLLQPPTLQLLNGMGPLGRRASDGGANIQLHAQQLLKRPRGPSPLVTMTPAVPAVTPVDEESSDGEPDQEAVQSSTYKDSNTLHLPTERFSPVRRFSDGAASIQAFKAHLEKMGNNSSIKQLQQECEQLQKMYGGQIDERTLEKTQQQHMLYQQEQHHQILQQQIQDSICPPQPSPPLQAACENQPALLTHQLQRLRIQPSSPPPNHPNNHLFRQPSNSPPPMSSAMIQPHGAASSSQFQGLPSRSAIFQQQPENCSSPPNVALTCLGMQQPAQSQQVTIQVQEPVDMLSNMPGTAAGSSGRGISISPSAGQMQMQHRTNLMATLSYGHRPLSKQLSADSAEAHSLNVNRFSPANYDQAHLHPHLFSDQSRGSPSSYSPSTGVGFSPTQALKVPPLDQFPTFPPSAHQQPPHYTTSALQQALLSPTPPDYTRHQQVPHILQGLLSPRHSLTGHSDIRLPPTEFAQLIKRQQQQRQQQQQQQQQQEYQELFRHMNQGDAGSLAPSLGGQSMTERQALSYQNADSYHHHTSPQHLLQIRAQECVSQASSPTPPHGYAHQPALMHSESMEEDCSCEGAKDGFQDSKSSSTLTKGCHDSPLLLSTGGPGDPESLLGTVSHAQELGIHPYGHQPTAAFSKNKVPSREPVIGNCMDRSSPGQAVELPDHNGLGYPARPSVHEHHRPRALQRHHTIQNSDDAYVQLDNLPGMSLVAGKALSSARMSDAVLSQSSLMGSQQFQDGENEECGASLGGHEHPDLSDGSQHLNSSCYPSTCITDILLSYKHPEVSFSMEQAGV

SMILES | IC50 (SIK3) | IC50 (SIK2) | IC50 (SIK1)
Cc1cc(-c2nc(-n3cnc4cc(Nc5ccc(C)nn5)ccc43)ccc2C(C)O)cnn1 (stereo not drawn) [Example 135, 1-[2-(6-Methylpyridazin-4-yl)-6-[5-[(6-methylpyridazin-3-yl)amino]benzimidazol-1-yl]-3-pyridyl]ethanol] | 167 nM | 589 nM | 27700 nM
Cc1ccc(Nc2ccc3ncn(-c4ccc(C(C)O)c(N5CCN(CC(F)(F)F)C(=O)C5)n4)c3c2)nn1 (stereo not drawn) [Example 137, 4-[3-(1-Hydroxyethyl)-6-[6-[(6-methylpyridazin-3-yl)amino]benzimidazol-1-yl]-2-pyridyl]-1-(2,2,2-trifluoroethyl)piperazin-2-one] | 746 nM | 1640 nM | 5410 nM
COc1cc2ncn(-c3ccc(C(C)O)c(-n4nc(C#N)cc4C)n3)c2cc1Nc1ccc(C)nn1 (stereo not drawn) [Example 140, 1-[3-(1-Hydroxyethyl)-6-[5-methoxy-6-[(6-methylpyridazin-3-yl)amino]benzimidazol-1-yl]-2-pyridyl]-5-methyl-pyrazole-3-carbonitrile] | 174 nM | 38.8 nM | 51 nM
CNC(=O)c1cc(C)n(-c2nc(-n3cnc4ccc(Nc5ccc(C)nn5)cc43)ccc2C(C)O)n1 (stereo not drawn) [Example 144, 1-[3-(1-Hydroxyethyl)-6-[6-[(6-methylpyridazin-3-yl)amino]benzimidazol-1-yl]-2-pyridyl]-N,5-dimethyl-pyrazole-3-carboxamide] | 9240 nM | 5920 nM | 8400 nM
Cc1ccc(Nc2ccc3c(c2)ncn3-c2ccc(C(C)O)c(-n3ncc(C#N)c3C)n2)nn1 (stereo not drawn) [Example 151, 1-[3-(1-Hydroxyethyl)-6-[5-[(6-methylpyridazin-3-yl)amino]benzimidazol-1-yl]-2-pyridyl]-5-methyl-pyrazole-4-carbonitrile] | 1880 nM | 4710 nM | 13600 nM
Cc1ccc(Nc2ccc3c(c2)ncn3-c2ccc(C(C)O)c(-c3c(C)noc3C)n2)nn1 (stereo not drawn) [Example 159, 1-[2-(3,5-Dimethylisoxazol-4-yl)-6-[5-[(6-methylpyridazin-3-yl)amino]benzimidazol-1-yl]-3-pyridyl]ethanol] | 70.2 nM | 306 nM | 23800 nM
Cc1cc(C#N)nn1-c1nc(-n2cnc3cc(NC4CC(=O)N(C)C4)ccc32)ccc1C(C)O (stereo not drawn) [Example 161, 1-[3-(1-Hydroxyethyl)-6-[5-[(5-keto-1-methyl-pyrrolidin-3-yl)amino]benzimidazol-1-yl]-2-pyridyl]-5-methyl-pyrazole-3-carbonitrile] | 66.1 nM | 181 nM | 450 nM
Cc1ccc(Nc2ccc3c(c2)ncn3-c2ccc(C(C)O)c(-c3cncnc3NC3CC3)n2)nn1 (stereo not drawn) [Example 163, 1-[2-[4-(Cyclopropylamino)pyrimidin-5-yl]-6-[5-[(6-methylpyridazin-3-yl)amino]benzimidazol-1-yl]-3-pyridyl]ethanol] | 181 nM | 964 nM | > 30000 nM
Cc1ccc(Nc2ccc3c(c2)ncn3-c2ccc(C(C)O)c(-c3cnc(O)cc3C(F)(F)F)n2)nn1 (stereo not drawn) [Example 164, 5-[3-(1-Hydroxyethyl)-6-[5-[(6-methylpyridazin-3-yl)amino]benzimidazol-1-yl]-2-pyridyl]-4-(trifluoromethyl)pyridin-2-ol] | 963 nM | 3300 nM | > 30000 nM
Cc1ccc(Nc2ccc3c(c2)ncn3-c2ccc(C(C)O)c(-c3cnn4c3C(=O)NCC4)n2)nn1 (stereo not drawn) [Example 165, 3-[3-(1-Hydroxyethyl)-6-[5-[(6-methylpyridazin-3-yl)amino]benzimidazol-1-yl]-2-pyridyl]-6,7-dihydro-5H-pyrazolo[1,5-a]pyrazin-4-one] | 95.5 nM | 359 nM | 13300 nM

These reach a lower IC50 (SIK3). Values come first.

IC50 (SIK3) | IC50 (SIK2) | IC50 (SIK1) | SMILES
3.9 nM | 13 nM | 345 nM | Cc1ccc(Nc2ccc3c(c2)ncn3-c2ccc(C(C)O)c(N3CCN(CC(F)(F)F)C(=O)C3)n2)nn1 (stereo not drawn) [Example 136, 4-[3-(1-Hydroxyethyl)-6-[5-[(6-methylpyridazin-3-yl)amino]benzimidazol-1-yl]-2-pyridyl]-1-(2,2,2-trifluoroethyl)piperazin-2-one]
1.3 nM | 0.7 nM | 103 nM | Cc1ccc(Nc2ccc3c(c2)ncn3-c2ccc(C(C)O)c(-c3cn(CC(F)(F)F)nc3C)n2)nn1 (stereo not drawn) [Example 143, 1-[6-[5-[(6-Methylpyridazin-3-yl)amino]benzimidazol-1-yl]-2-[3-methyl-1-(2,2,2-trifluoroethyl)pyrazol-4-yl]-3-pyridyl]ethanol]
1.4 nM | 9 nM | 552 nM | Cc1ccc(Nc2ccc3c(c2)ncn3-c2ccc(C(C)O)c(-n3nc(S(C)(=O)=O)cc3C)n2)nn1 (stereo not drawn) [Example 145, 1-[2-(5-Methyl-3-methylsulfonyl-pyrazol-1-yl)-6-[5-[(6-methylpyridazin-3-yl)amino]benzimidazol-1-yl]-3-pyridyl]ethanol]
7.8 nM | 34.6 nM | 227 nM | Cc1cc(C#N)nn1-c1nc(-n2cnc3cc(Nc4ccn(C)c(=O)n4)ccc32)ccc1C(C)O (stereo not drawn) [Example 146, 1-[3-(1-Hydroxyethyl)-6-[5-[(2-keto-1-methyl-pyrimidin-4-yl)amino]benzimidazol-1-yl]-2-pyridyl]-5-methyl-pyrazole-3-carbonitrile]
1.2 nM | 10.3 nM | 663 nM | Cc1ccc(Nc2ccc3c(c2)ncn3-c2ccc(C(O)C(F)(F)F)c(-n3nc(C#N)cc3C)n2)nn1 (stereo not drawn) [Example 148, 5-Methyl-1-[6-[5-[(6-methylpyridazin-3-yl)amino]benzimidazol-1-yl]-3-(2,2,2-trifluoro-1-hydroxy-ethyl)-2-pyridyl]pyrazole-3-carbonitrile]
1.9 nM | 8.4 nM | 1290 nM | Cc1ccc(Nc2ccc3c(c2)ncn3-c2ccc(C(C)O)c(-c3cn(C(F)F)nc3C)n2)nn1 (stereo not drawn) [Example 149, 1-[2-[1-(Difluoromethyl)-3-methyl-pyrazol-4-yl]-6-[5-[(6-methylpyridazin-3-yl)amino]benzimidazol-1-yl]-3-pyridyl]ethanol]
33.5 nM | 207 nM | 24400 nM | Cc1ccc(Nc2ccc3ncn(-c4ccc(C(C)O)c(-n5ncc(C#N)c5C)n4)c3c2)nn1 (stereo not drawn) [Example 150, 1-[3-(1-Hydroxyethyl)-6-[6-[(6-methylpyridazin-3-yl)amino]benzimidazol-1-yl]-2-pyridyl]-5-methyl-pyrazole-4-carbonitrile]
16.1 nM | 82.1 nM | 5040 nM | CNC(=O)c1cc(C)n(-c2nc(-n3cnc4cc(Nc5ccc(C)nn5)ccc43)ccc2C(C)O)n1 (stereo not drawn) [Example 152, 1-[3-(1-Hydroxyethyl)-6-[5-[(6-methylpyridazin-3-yl)amino]benzimidazol-1-yl]-2-pyridyl]-N,5-dimethyl-pyrazole-3-carboxamide]
26.5 nM | 90.2 nM | 361 nM | Cc1cc(C#N)nn1-c1nc(-n2cnc3cc(NC4CCN(C)C(=O)C4)ccc32)ccc1C(C)O (stereo not drawn) [Example 155, 1-[3-(1-Hydroxyethyl)-6-[5-[(2-keto-1-methyl-4-piperidyl)amino]benzimidazol-1-yl]-2-pyridyl]-5-methyl-pyrazole-3-carbonitrile]
12.8 nM | 41.9 nM | 2150 nM | COc1cc(C)n(-c2nc(-n3cnc4cc(Nc5ccc(C)nn5)ccc43)ccc2CO)n1 [Example 158, [2-(3-methoxy-5-methyl-pyrazol-1-yl)-6-[5-[(6-methylpyridazin-3-yl)amino]benzimidazol-1-yl]-3-pyridyl]methanol]
1.2 nM | 3.2 nM | 223 nM | COc1ccnnc1Nc1ccc2c(c1)ncn2-c1ccc(C(C)O)c(-n2nc(C#N)cc2C)n1 (stereo not drawn) [Example 160, 1-[3-(1-Hydroxyethyl)-6-[5-[(4-methoxypyridazin-3-yl)amino]benzimidazol-1-yl]-2-pyridyl]-5-methyl-pyrazole-3-carbonitrile]
46.9 nM | 198 nM | 8570 nM | Cc1ccc(Nc2ccc3c(c2)ncn3-c2ccc(C(C)O)c(-c3ccncc3C)n2)nn1 (stereo not drawn) [Example 162, 1-[6-[5-[(6-Methylpyridazin-3-yl)amino]benzimidazol-1-yl]-2-(3-methyl-4-pyridyl)-3-pyridyl]ethanol]
40.8 nM | 83.2 nM | 681 nM | Cc1cc(C#N)nn1-c1nc(-n2cnc3cc(N[C@H]4CNC[C@H]4F)c(F)cc32)ccc1C(C)O (stereo partly drawn) [Example 166, 1-[6-[6-Fluoro-5-[[(3S,4R)-4-fluoropyrrolidin-3-yl]amino]benzimidazol-1-yl]-3-(1-hydroxyethyl)-2-pyridyl]-5-methyl-pyrazole-3-carbonitrile; formic acid]
1.2 nM | 0.9 nM | 40 nM | Cc1ccc(Nc2ccc3c(c2)ncn3-c2ccc(C(C)O)c(-c3cc(OC(F)F)ncc3C)n2)nn1 (stereo not drawn) [Example 167, 1-[2-[2-(Difluoromethoxy)-5-methyl-4-pyridyl]-6-[5-[(6-methylpyridazin-3-yl)amino]benzimidazol-1-yl]-3-pyridyl]ethanol]
8.6 nM | 39.9 nM | 1760 nM | Cc1ccc(Nc2ccc3c(c2)ncn3-c2ccc(C(C)O)c(-c3cc(F)ncc3C)n2)nn1 (stereo not drawn) [Example 168, 1-[2-(2-Fluoro-5-methyl-4-pyridyl)-6-[5-[(6-methylpyridazin-3-yl)amino]benzimidazol-1-yl]-3-pyridyl]ethanol]
